In article PMC5520492, “Inhibition of DNA2 nuclease as a therapeutic strategy targeting replication stress in cancer cells” (Oncogenesis, 2017):
Entries after “also recorded” stand apart in the source; their conditions may differ.

How the values were obtained:
hDNA2 [1] = target: T1, hDNA2 (Homo sapiens, UniProt P51530); experiment: Fluorescence nuclease assay with hDNA2 (triply labeled ssDNA); assay type: biochemical; settings: human DNA2 10 nM; substrate 0.1 μM; Figure 3c; read-out: IC50 (human DNA2), dose-response in vitro
T1 construct: made in house
T1 sequence (P51530 1-1060): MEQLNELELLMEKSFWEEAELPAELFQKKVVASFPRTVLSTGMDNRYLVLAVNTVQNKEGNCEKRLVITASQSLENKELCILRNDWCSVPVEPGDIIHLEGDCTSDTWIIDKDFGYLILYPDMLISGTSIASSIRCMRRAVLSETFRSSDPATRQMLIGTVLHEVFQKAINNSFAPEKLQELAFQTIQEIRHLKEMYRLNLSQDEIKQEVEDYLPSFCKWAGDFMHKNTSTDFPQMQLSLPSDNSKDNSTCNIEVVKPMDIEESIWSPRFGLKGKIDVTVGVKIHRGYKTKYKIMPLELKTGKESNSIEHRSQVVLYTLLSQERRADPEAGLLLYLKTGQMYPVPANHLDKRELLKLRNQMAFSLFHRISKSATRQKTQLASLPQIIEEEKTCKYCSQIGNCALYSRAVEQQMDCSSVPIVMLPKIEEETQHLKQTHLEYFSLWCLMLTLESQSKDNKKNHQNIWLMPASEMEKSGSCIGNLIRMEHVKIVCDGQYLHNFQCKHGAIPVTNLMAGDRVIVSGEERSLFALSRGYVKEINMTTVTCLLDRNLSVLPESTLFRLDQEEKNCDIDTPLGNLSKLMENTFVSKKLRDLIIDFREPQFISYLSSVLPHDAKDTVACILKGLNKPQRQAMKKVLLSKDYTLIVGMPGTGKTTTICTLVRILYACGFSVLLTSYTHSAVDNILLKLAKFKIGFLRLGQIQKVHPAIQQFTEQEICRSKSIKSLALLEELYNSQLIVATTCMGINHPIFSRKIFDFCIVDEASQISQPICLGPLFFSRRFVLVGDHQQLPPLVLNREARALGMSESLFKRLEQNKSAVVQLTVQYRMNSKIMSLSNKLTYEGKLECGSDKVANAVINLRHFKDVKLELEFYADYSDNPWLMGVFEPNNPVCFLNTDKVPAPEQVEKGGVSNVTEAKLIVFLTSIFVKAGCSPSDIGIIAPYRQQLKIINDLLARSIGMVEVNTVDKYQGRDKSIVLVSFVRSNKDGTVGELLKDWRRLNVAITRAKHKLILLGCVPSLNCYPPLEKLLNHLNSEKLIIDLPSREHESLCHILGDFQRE
Protocol: Figure 3 Validation of the top two inhibitors identified from the high-throughput screen. […] (b, c) Dose-response curves for indicated compounds, cell based (U2OS cell line) (b) and in vitro (c). The IC50 value and the protein concentration used are indicated. Triple labeled substrate (0.1 μM) as in Figure 2a was used. The concentration range of inhibitors was 0.003–666.67 μM. […] The asterisks denote the radiolabel. Plotted are the average data from three independent experiments and the error bars represent 1 s.d. […]
In addition, a second dark quencher ZEN (N,N-diethyl-4-(4-nitronaphthalen-1-ylazo)-phenylamine, absorption max.=532 nm) is placed between 9th and 10th base (Figure 2a). […] The optimal amount of yDna2, hDNA2 and T5 nuclease was determined by utilizing the Kaleidagraph software (Reading, PA, USA) to fit the data according to Michaelis Menton Kinetics (V=V0+Vmax*x/(Km+x)). […] The Z’ value was calculated as previously described.[50] Cell proliferation was determined using 4,6-diamidino-2-phenylindole staining followed by high-throughput microscopy in a 384-well plate setup. In brief, cells were fixed with formaldehyde, washed and stained with 4,6-diamidino-2-phenylindole and the number of nuclei in each well counted by automated microscopy. The data were analyzed as described.[51]

hDNA2 [2] = target: T1, hDNA2; experiment: ATPase activity of hDNA2 (TLC); assay type: biochemical; settings: inhibitor 10 µM, 100 nM hDNA2
Protocol: Figure S2. […] (a) Analysis of 5’ flap processing by hDNA2 in presence of the compounds at the indicated concentration. DNA2 (2.5 nM) was incubated with the Y DNA substrate (5 nM ends) and the indicated concentration of inhibitor. (b) Plots showing quantitation of the experiments shown in a. Plotted are the average data from three independent experiments with the error bars representing one standard deviation. (c) Analysis of dsDNA unwinding by BLM. BLM (4, 8 and 16 nM), RPA (100 nM) and internally radiolabelled dsDNA (0.5 nM ends) was incubated for 20 min at 37^ºC in presence of either DMSO or NSC-105808 (10 µM) and the products were resolved on a 1% agarose gel. (d) Plots showing quantitation of the experiments shown in c. Plotted are the average data from three independent experiments with the error bars representing one standard deviation. (e) Analysis of the degradation of a 2 kb internally labeled dsDNA (0.5 nM ends) by EXO1 (5 nM) in presence of NSC-105808 (10 µM). (f) Plot showing quantitation of the experiment in e. […] 100 nM hDNA2 was incubated with γ^32P-ATP in the presence of oligonucleotide ssDNA (200 nM) for 20 minutes at 37^ºC in presence of either DMSO or inhibitor (10 µM) and the products were resolved on a TLC plate. (h) Analysis of hDNA2 binding to DNA. […]

SMILES	IC50 (hDNA2 [1]) [µM]	Effect on ATPase activity of DNA2 (hDNA2 [2])
NC1=C(Br)C(=O)c2ncccc2C1=O [NSC-105808, 6-amino-7-bromoquinoline-5,8-dione]	1.49	do not affect; also recorded: no effect
O=C1C(=O)c2cc([N+](=O)[O-])ccc2-c2ccccc21 [NSC-5195242, 2-nitrophenanthrene-9,10-dione]	3.1	do not affect
